Measurements as given in patent US10900063B2, “Measurement of Lp-PLA2 activity” (ASAHI KASEI PHARMA CORPORATION, priority 2016, dated 2021).

Key:
Lp-PLA2 = biological target: T1, Lp-PLA2 (Homo sapiens, UniProt Q13093); experiment: Lp-PLA2 activity measurement in serum/plasma with reagents of the invention (PAF substrate, lyso-PAF-PLD, choline oxidase, peroxidase colorimetry); type: biochemical; conditions: for Relative activity: PAF(C16) = 100; for values for absorbance change (sensitivity) compared with DAOS: Trinder reagent with 4-AA
T1 construct: Individual serum No. 16, individual serum No. 78; from tissue; host or cells: serum and plasma (individual sera, pooled sera, heparin and citrated pooled plasma)
T1 sequence (Q13093 22-441): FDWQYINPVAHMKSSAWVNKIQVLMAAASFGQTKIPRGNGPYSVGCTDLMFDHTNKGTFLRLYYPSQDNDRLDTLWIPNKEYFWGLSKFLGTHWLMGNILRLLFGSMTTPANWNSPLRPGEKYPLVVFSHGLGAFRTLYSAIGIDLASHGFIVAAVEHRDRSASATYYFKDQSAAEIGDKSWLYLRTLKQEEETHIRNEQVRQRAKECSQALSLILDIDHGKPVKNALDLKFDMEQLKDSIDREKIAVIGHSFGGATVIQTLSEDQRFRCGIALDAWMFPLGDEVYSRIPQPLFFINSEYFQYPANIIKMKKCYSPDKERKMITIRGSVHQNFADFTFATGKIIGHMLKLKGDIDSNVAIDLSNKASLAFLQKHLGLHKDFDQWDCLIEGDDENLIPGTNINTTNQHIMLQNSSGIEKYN
Procedure: Unless otherwise specified, in these examples the Method 1 described under 1) below is used for calculating Lp-PLA2 activity values. In these examples, (nmol/min/mL) is sometimes expressed as (U/L).
This is calculated by the following formula based on the absorbance change per minute (ΔmAbs/min) as calculated from absorbance at the measuring points and the millimolar extinction coefficient (ε=36) of TODB at 546 nm.
(§1) 4 μL of the sample was mixed with 160 μL of the R1 reagent, and incubated for 5 minutes at 37° C. (measuring points 1 to 16), after which 40 μL of the R2 reagent was added to initiate a reaction (measuring point 17). The absorbance of water (blank) at the same measuring points was subtracted from the absorbance of the sample about 3.6 to 4.5 minutes after the reaction was initiated by addition of the R2 reagent (measuring points 30 to 33) to calculate the absorbance change per minute (ΔmAbs/min), and the Lp-PLA2 activity value (nmol/min/mL) was calculated according to the previous formula.
[…] was mixed with 150 μL of the R1 reagent, and incubated for 5 minutes at 37° C. (measuring points 1 to 15), after which 100 μL of the R2 reagent was added to initiate a reaction (measuring point 16). The absorbance of water (blank) at the same measuring points was subtracted from the absorbance of the sample about 2 to 3 minutes after the reaction was initiated by addition of the R2 reagent (measuring points 23 to 26) to calculate the absorbance change per minute (ΔmAbs/min), and the Lp-PLA2 activity value (nmol/min/mL) was calculated according to the previous formula. The values for absorbance change per minute (sensitivity) (ΔmAbs/min) and the Lp-PLA2 activity values (nmol/min/mL) at each pH are shown in Tables 1 and 2.
(§2) 5 μL of sample was mixed with 150 μL of the R1 reagent, and incubated for 5 minutes at 37° C. (measuring points 1 to 15), after which 100 μL of the R2 reagent was added to initiate a reaction (measuring point 16). The absorbance of water (blank) at the same measuring points was subtracted from the absorbance of the sample about 3.5 to 4.5 minutes after the reaction was initiated by addition of the R2 reagent (measuring points 27 to 30) to calculate the absorbance change per minute (ΔmAbs/min), and the Lp-PLA2 activity value (nmol/min/mL) was calculated according to the previous formula. The values for absorbance change per minute (sensitivity) (ΔmAbs/min) and Lp-PLA2 activity (nmol/min/mL) and the relative activity for each substrate given 100 as the Lp-PLA2 activity value for PAF(C16) are shown in Tables 19 to 24.
Each sample was mixed with 160 μL of the R1 reagent, and incubated for 5 minutes at 37° C., (measuring points 1 to 15), after which 40 μL of the R2 reagent was added to initiate the reaction (measuring point 16). The absorbance of water (blank) at the same measuring points was subtracted from the absorbance of the sample about 3.5 to 4.5 minutes after the reaction was initiated by addition of the R2 reagent (measuring points 27 to 30) to calculate the absorbance change per minute (ΔmAbs/min), and the Lp-PLA2 activity value (nmol/min/mL) was calculated according to the previous formula. […]
as §1, with “(measuring” for “4 μL of the sample was mixed with 160 μL of the R1 reagent, and incubated for 5 minutes at 37° C. (measuring”, “100” for “40”, “3.5” for “3.6”, “29” for “30”, “32)” for “33)”

rLp-PLA2 = biological target: T2, rLp-PLA2 (Homo sapiens, UniProt Q13093, I42M); experiment: Lp-PLA2 activity measurement with reagents of the invention, recombinant Lp-PLA2 as sample; type: biochemical; conditions: Example 9, sample rLp-PLA2 (0.017 mg/mL)
T2 construct: histidine tag (from vector pET-19b) (N); made in house; host or cells: E. coli BL21(DE3), plasmid Lp-PLA2/pET-19b
T2 sequence (Q13093 42-441 I42M): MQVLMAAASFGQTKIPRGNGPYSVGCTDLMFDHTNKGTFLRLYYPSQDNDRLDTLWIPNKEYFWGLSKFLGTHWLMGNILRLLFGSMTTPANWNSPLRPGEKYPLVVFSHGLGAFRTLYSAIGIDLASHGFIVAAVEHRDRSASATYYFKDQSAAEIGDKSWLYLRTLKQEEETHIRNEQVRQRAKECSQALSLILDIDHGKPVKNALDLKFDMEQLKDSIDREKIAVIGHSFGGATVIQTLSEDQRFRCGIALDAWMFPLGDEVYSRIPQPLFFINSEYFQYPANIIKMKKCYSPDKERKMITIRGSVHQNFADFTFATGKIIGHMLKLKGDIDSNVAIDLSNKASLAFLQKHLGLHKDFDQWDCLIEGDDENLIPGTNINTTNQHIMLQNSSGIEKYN
Procedure: The recombinant Lp-PLA2 (rLp-PLA2) used in these examples was prepared in accordance with Reference Examples 4 to 6 based on the information disclosed in J. Biol. Chem., Oct. 27, 1995, No. 43, Vol. 270, pp. 25481-25487.
A gene optimized for E. coli (matched to E. coli codon usage) was synthesized (GenScript (NJ, USA)) based on the sequence data for a human Lp-PLA2 gene. Using the synthesized DNA as a template, a roughly 1200 bp PCR product was obtained by PCR using KOD FX (Toyobo Co., Ltd.) using as the sense primer the nucleotide sequence of SEQ ID NO: 5 in which the 42nd isoleucine was changed to the sequence of the initial methionine, with the nucleotide sequence of SEQ ID NO: 6 as the antisense primer. The resulting PCR product was digested with NdeI (Takara Bio Inc.) and BamHI (Takara Bio Inc.), and inserted into the NdeI-BamHI site of the expression vector pET-19b (Novagen) to obtain an Lp-PLA2/pET-19b expression plasmid. This expression plasmid was transformed into One shot BL21(DE3) Chemically Competent E. coli, to obtain a transformant called Lp-PLA2/pET-19b/BL21(DE3) comprising a recombinant vector containing a polynucleotide consisting of a nucleotide sequence encoding Lp-PLA2 with a histidine tag from the vector added at the N-terminus.
as §2

[1] = Example 4, 50 mM buffer pH 7.5 in R1 and R2, sample Individual serum 16
[2] = Example 4, 50 mM buffer pH 7.5 in R1 and R2, sample Individual serum 78
[3] = Example 9, 10 mM substrate in R2, sample Citrated pooled plasma
[4] = Example 9, 10 mM substrate in R2, sample Heparin pooled plasma
[5] = Example 9, 10 mM substrate in R2, sample Individual serum 16
[6] = Example 9, 10 mM substrate in R2, sample Pooled serum C
[7] = Example 9, 10 mM substrate in R2, sample Pooled serum J042
[8] = Example 10, 0.03% Trinder reagent in R1 with 4-AA, sample Individual serum No16
[9] = Example 10, 0.03% Trinder reagent in R1 with 4-AA, sample Individual serum No78
[10] = Example 10, 0.03% Trinder reagent in R1 with 4-AA, sample Pooled serum J042

Lp-PLA2 activity value (Lp-PLA2; [1]) [nmol/min/mL]	absorbance change per minute (sensitivity) (Lp-PLA2; [1])	Lp-PLA2 activity value (Lp-PLA2; [2]) [nmol/min/mL]	absorbance change per minute (sensitivity) (Lp-PLA2; [2])	Lp-PLA2 activity value (Lp-PLA2; [8]) [nmol/min/mL]	absorbance change per minute (sensitivity) (Lp-PLA2; [8])	Lp-PLA2 activity value (Lp-PLA2; [9]) [nmol/min/mL]	absorbance change per minute (sensitivity) (Lp-PLA2; [9])	Lp-PLA2 activity value (Lp-PLA2; [10]) [nmol/min/mL]	absorbance change per minute (sensitivity) (Lp-PLA2; [10])	SMILES	also measured
81.3	34.7 ΔmAbs/min	39.4	16.8 ΔmAbs/min							O=S(=O)(O)CCCN1CCOCC1 [MOPS, 3-Morpholinopropanesulfonic acid]	
										CCCCCCCCCCCCCCCCCCOC[C@H](COP(=O)([O-])OCC[N+](C)(C)C)OC(C)=O [PAF(C18), 1-O-Octadecyl-2-acetyl-sn-glycero-3-phosphocholine]	Lp-PLA2 activity value (rLp-PLA2; 10 mM substrate in R2): 74.1 nmol/min/mL; absorbance change per minute (sensitivity) (rLp-PLA2; 10 mM substrate in R2): 52.3 ΔmAbs/min; Relative activity (rLp-PLA2; PAF(C16) = 100): 56%; Lp-PLA2 activity value (Lp-PLA2; [3]): 27.8 nmol/min/mL; absorbance change per minute (sensitivity) (Lp-PLA2; [3]): 19.6 ΔmAbs/min; Lp-PLA2 activity value (Lp-PLA2; [4]): 38.7 nmol/min/mL; absorbance change per minute (sensitivity) (Lp-PLA2; [4]): 27.3 ΔmAbs/min; Lp-PLA2 activity value (Lp-PLA2; [5]): 79.3 nmol/min/mL; absorbance change per minute (sensitivity) (Lp-PLA2; [5]): 56.0 ΔmAbs/min; Lp-PLA2 activity value (Lp-PLA2; [6]): 35.6 nmol/min/mL; absorbance change per minute (sensitivity) (Lp-PLA2; [6]): 25.1 ΔmAbs/min; Lp-PLA2 activity value (Lp-PLA2; [7]): 35.4 nmol/min/mL; absorbance change per minute (sensitivity) (Lp-PLA2; [7]): 25.0 ΔmAbs/min; Relative activity (Lp-PLA2; Example 9, sample Citrated pooled plasma): 83%; Relative activity (Lp-PLA2; Example 9, sample Heparin pooled plasma): 87%; Relative activity (Lp-PLA2; Example 9, sample Individual serum 16): 84%; Relative activity (Lp-PLA2; Example 9, sample Pooled serum C): 87%; Relative activity (Lp-PLA2; Example 9, sample Pooled serum J042): 87%
89.5	38.2 ΔmAbs/min	43.1	18.4 ΔmAbs/min							O=S(=O)(O)CCN1CCN(CCS(=O)(=O)O)CC1 [PIPES, Piperazine-1,4-bis(2-ethanesulfonic acid)]	
				71.0	30.3 ΔmAbs/min	30.0	12.8 ΔmAbs/min	31.9	13.6 ΔmAbs/min	Cc1cccc(N(CCCCS(=O)(=O)[O-])CCCCS(=O)(=O)[O-])c1.[Na+].[Na+] [TODB, N,N-bis(4-sulfobutyl)-3-methylaniline, disodium salt]	values for absorbance change (sensitivity) compared with DAOS (Lp-PLA2; Example 10): about twice those obtained with DAOS
76.4	32.6 ΔmAbs/min	36.5	15.6 ΔmAbs/min							O=S(=O)(O)CCN1CCN(CCO)CC1 [HEPES, 2-[4-(2-Hydroxyethyl)-1-piperazinyl]ethanesulfonic acid]	
99.1	42.3 ΔmAbs/min	44.7	19.1 ΔmAbs/min							NC(CO)(CO)CO [Tris, 2-Amino-2-hydroxymethyl-1,3-propanediol]	
				33.7	14.4 ΔmAbs/min	14.5	6.2 ΔmAbs/min	14.1	6.0 ΔmAbs/min	CCN(CC(O)CS(=O)(=O)[O-])c1cc(OC)cc(OC)c1.[Na+] (centres unmarked) [DAOS, N-ethyl-N-(2-hydroxy-3-sulfopropyl)-3,5-dimethoxyaniline sodium salt]	
75.7	32.3 ΔmAbs/min	37.5	16.0 ΔmAbs/min							O=S(=O)(O)CCNC(CO)(CO)CO [TES, N-tris(hydroxymethyl)methyl-2-aminoethanesulfonic acid]	

SMILES	Lp-PLA2 activity value (Lp-PLA2; [1]) [nmol/min/mL]	absorbance change per minute (sensitivity) (Lp-PLA2; [1])	Lp-PLA2 activity value (Lp-PLA2; [2]) [nmol/min/mL]	absorbance change per minute (sensitivity) (Lp-PLA2; [2])	Lp-PLA2 activity value (Lp-PLA2; [8]) [nmol/min/mL]	absorbance change per minute (sensitivity) (Lp-PLA2; [8])	Lp-PLA2 activity value (Lp-PLA2; [9]) [nmol/min/mL]	absorbance change per minute (sensitivity) (Lp-PLA2; [9])	Lp-PLA2 activity value (Lp-PLA2; [10]) [nmol/min/mL]	absorbance change per minute (sensitivity) (Lp-PLA2; [10])	also measured
CCN(CC(O)CS(=O)(=O)[O-])c1cccc(C)c1.O.O.[Na+] (centres unmarked) [TOOS, N-ethyl-N-(2-hydroxy-3-sulfopropyl)-3-methylaniline, sodium salt, dihydrate]					69.3	29.6 ΔmAbs/min	28.1	12.0 ΔmAbs/min	30.9	13.2 ΔmAbs/min	values for absorbance change (sensitivity) compared with DAOS (Lp-PLA2; Example 10): about twice those obtained with DAOS
O=P(O)(O)O [Pi-K, potassium phosphate]	84.3	36.0 ΔmAbs/min	37.5	16.0 ΔmAbs/min							
